Test results published in US11324706B2, “Composition for inhibiting growth of breast cancer stem cells containing phenylacetaldehyde” (JEJU NATIONAL UNIVERSITY INDUSTRY-ACADEMIC COOPERATION …, priority 2016, dated 2022).

Tested on: MCF-7 cell-derived mammospheres
Assay: Mammosphere formation, MCF-7-derived
Assay type: cell-based, human
Conditions: volatile materials exposed to MCF-7 (FIG. 5B)
Method: FIGS. 4A, 4B and 4C show effects of PAA on formation of MCF-7 cell-derived mammospheres. Primary mammospheres were cultured together with PAA (0.2 and 0.5 mM) or DMSO;
Human breast cancer cells, i.e., MCF-7 and MDA-MB-231, were commercially obtained from American Type Culture Collection (ATCC; Manassas, Va., USA). MCF-7 and MDA-MB-231 cells were cultured in Dulbecco's modified essential medium (DMEM; Hyclone, Logan, Utah, USA) containing 10% fetal bovine serum (FBS; Hyclone), 100 U/mL of penicillin, and 100 μg/mL of streptomycin (Hyclone). The MCF-7 and MDA-MB-231 cells were maintained at 37° C. in a 5% CO2-containing humidified incubator. The cells were plated at a density of 1×10^6 on a 10 cm petri dish. In order to establish primary mammospheres, single cell-suspended MCF-7 and MDA-MB-231 cells were seeded at a density (cells/well) of 3.5×10^4 to 4×10^4 and 0.5×10^4 to 1×10^4, respectively, on ultra-low attachment 6-well plates containing 2 ml complete MammoCult™ medium (StemCell Technologies, Vancouver, BC, Canada). The complete MammoCult™ medium was supplemented with 4 μg/mL of heparin, 0.48 μg/mL of hydrocortisone, 100 U/mL of penicillin and 100 μg/mL of streptomycin. The cells were cultured for 7 days in a 37° C. 5% CO2 incubator.
At 7 days of culture, the cell culture plate was disposed on a scanner (Epson Perfection V700 PHOTO, Epson Korea, Co, Seoul, Korea) to obtain an 8 bit gray scale image of mammospheres. The image was obtained at a low resolution (300 dpi) using an NICE software program and downloaded from ftp://ftp.nist.gov/pub/physics/mLclarke/NICE. For counting, preferred numbers of rows and columns (for example, 2×3 of 6-well plate) were selected to form regions of interest (ROIs), and an oval setting of the NICE program was selected and then respective ROIs were defined by moving the shapes of provided ROIs and controlling the sizes thereof. The background signal of the image was negated using a critical algorithm and the selected image was automatically counted. Regarding the mammosphere formation analysis, formation efficiency of mammospheres (MFE, %) was determined in accordance with the number of mammospheres per well/the total number of cells plated per well×100.

SMILES	formation of primary mammospheres derived from MCF-7 cells
O=CCCc1ccccc1 [3-phenylpropionaldehyde]	inhibited
CC(C=O)c1ccccc1 (centres unmarked) [2-phenylpropionaldehyde]	potently inhibited
